{"source": "patent US20170157212A1", "about": "“CDK MODULATORS AND METHODS FOR THE TREATMENT OF CANCER” (Salk Institute for Biological Studies, priority 2015, published 2017)", "key": {"[1]": {"system": "CHK1, RPL26, TMA7 gene promoters in U2OS cells", "test": "Chromatin immunoprecipitation (ChIP) at CDK12 target gene promoters", "format": "cell-based, human", "details": "12 hr treatment", "procedure": "Briefly, 5×10^6 cells were twice washed with ice-cold PBS and serially cross-linked with 2 mM DSG (Disuccinimidylglutarate) for 20 min and 1% (v/v) formaldehyde for 10 min at room temperature. The cross-linking reaction was stopped by adding glycine to a final concentration of 0.125 M for 10 min at room temperature. Cells were washed twice with cold PBS. […] ChIP DNA is analyzed by SYBR® Green master mixes (Life Technologies) using described primer sets. qPCR is carried out in the ABI7300 (Applied Biosystems) with a 10 min DNA denaturation step at 95° C., followed by 40 cycles of 15 s at 95° C., 60 s at 60° C. […]\nChIP experiments were carried out as described in the previous report. […] ChIP DNA is analyzed by SYBR® Green master mixes (Life Technologies) using described primer sets. qPCR is carried out in the ABI7300 (Applied Biosystems) with a 10 min DNA denaturation step at 95° C., followed by 40 cycles of 15 s at 95° C., 60 s at 60° C. […]"}, "U2OS cells [2]": {"system": "U2OS cells", "details": "CDK12 siRNA, 1 μM for 12 hr", "experimental": "Top panel: U2OS cells were treated with tBHQ (tert-Butylhydroquinone) 100 μM for 4 h, and cell extracts were analyzed by co-immunoprecipitation with anti-CDK12 antisera for association of CRIF1 or CCNK."}, "Cdk12": {"molecular_target": "Cdk12 (Homo sapiens, UniProt Q9NYV4)", "sequence (Q9NYV4 whole entry)": "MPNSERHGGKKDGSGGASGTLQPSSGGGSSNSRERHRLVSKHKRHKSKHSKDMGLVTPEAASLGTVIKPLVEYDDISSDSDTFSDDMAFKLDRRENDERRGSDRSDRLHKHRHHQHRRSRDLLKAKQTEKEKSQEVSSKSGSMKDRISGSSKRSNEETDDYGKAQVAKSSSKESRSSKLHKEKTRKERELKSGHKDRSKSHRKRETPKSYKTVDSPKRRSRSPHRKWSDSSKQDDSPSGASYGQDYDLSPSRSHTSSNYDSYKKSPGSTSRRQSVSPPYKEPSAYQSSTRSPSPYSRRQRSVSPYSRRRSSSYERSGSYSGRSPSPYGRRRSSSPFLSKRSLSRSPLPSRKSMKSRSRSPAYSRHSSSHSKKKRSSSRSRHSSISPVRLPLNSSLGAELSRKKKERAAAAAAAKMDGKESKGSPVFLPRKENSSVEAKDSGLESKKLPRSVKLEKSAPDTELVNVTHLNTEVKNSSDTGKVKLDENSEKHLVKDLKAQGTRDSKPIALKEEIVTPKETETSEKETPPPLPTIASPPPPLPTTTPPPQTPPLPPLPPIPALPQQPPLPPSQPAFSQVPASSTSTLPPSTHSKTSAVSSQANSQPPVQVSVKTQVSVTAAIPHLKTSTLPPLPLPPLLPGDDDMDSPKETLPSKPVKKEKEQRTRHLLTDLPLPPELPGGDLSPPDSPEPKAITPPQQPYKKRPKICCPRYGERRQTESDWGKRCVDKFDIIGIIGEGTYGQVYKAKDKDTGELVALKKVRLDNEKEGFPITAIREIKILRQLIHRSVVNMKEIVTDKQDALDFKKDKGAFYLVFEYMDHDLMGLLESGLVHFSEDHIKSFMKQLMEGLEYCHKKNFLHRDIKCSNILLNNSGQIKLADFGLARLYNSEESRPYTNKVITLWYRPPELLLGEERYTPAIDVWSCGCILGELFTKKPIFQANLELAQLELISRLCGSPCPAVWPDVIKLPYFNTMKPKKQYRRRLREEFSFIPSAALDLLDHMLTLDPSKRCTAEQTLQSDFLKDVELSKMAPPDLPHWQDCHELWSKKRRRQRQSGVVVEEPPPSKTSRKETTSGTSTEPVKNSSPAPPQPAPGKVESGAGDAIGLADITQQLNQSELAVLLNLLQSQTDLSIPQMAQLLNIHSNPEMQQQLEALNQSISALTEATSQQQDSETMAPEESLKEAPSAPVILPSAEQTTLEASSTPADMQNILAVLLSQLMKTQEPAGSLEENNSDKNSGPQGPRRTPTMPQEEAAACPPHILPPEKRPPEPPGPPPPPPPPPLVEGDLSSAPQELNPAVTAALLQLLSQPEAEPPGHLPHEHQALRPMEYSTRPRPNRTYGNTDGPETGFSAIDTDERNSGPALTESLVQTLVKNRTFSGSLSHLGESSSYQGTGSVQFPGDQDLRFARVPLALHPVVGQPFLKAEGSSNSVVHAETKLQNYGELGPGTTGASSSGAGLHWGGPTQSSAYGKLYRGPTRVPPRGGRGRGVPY", "sequence (O75909 whole entry partner)": "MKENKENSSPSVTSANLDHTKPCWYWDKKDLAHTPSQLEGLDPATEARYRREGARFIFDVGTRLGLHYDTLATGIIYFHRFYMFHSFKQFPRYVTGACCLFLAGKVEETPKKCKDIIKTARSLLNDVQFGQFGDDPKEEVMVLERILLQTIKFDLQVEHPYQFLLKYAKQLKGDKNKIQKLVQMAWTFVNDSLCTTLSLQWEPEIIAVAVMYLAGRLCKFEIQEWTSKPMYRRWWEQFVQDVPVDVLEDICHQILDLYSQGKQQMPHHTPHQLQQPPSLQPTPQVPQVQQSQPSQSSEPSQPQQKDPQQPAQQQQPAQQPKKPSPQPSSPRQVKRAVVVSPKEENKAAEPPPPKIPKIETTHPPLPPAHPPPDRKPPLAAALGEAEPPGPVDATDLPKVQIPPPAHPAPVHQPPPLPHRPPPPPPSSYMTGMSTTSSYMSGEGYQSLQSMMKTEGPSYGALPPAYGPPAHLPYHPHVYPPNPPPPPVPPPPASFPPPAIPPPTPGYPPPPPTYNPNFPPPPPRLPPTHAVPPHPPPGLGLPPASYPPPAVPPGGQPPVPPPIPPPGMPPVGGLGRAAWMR", "details": "have been shown (prior knowledge); cited from earlier work"}, "[3]": {"system": "eIF4G-bound mRNAs in U2OS cells", "test": "RIP-seq of eIF4G-bound mRNAs", "format": "cell-based, human", "details": "transcriptional targets excluded", "procedure": "All steps were conducted at 4° C. in RNase-free conditions. U20S cells (5×10^6) were transfected with the indicated siRNAs and washed twice with cold PBS. […] Reverse transcription and qRT-PCR for quantitative RNA analysis was carried out as described above.\nAll steps were conducted at 4° C. in RNase-free conditions. […] Reverse transcription and qRT-PCR for quantitative RNA analysis was carried out as described above.\nHigh throughput sequencing was performed. For detail of analysis, sequenced reads were quality-tested using FASTQC and aligned to the hg19 human genome using the STAR aligner version 2.4.0 k (Dobin et al., Bioinformatics. 2013; 29(1):15-21. doi: 10.1093/bioinformatics/bts635. pmid:23104886). Mapping was carried out using default parameters (up to 10 mismatches per read, and up to 9 multi-mapping locations per read). […] Raw gene expression was quantified across all gene exons (RNA-Seq) or across gene bodies (RIP-Seq), using the top-expressed isoform as proxy for gene expression, and differential gene expression was carried out using the edgeR package version 3.6.8 (Robinson et al. (2010) Bioinformatics, 26, pp. 1) using duplicates to compute within-group dispersion. […]"}, "[4]": {"system": "CRIF1-CDK12 interaction in U2OS cells", "test": "Co-immunoprecipitation of CRIF1 with CDK12:CCNK under oxidative stress", "format": "cell-based, human", "details": "100 μM for 4 h, reciprocal co-immunoprecipitation", "procedure": "(§1) FIGS. 7A-7F. […] (F) Oxidative stress activates the CDK12 pathway.\n(§2) CDK12 was also recently shown to be essential for NRF2-dependent transcription (Li et al., Sci Rep 6, 21455, 2016). To examine whether CDK12 activity is regulated globally by oxidative stress in human cells, U2OS cells were treated with tBHQ (tert-butylhydroquinone) to induce mitochondrial oxidative stress. […] In contrast, oxidative stress had no effect on the interaction of CCNK with CDK12."}, "U2OS cells [5]": {"system": "U2OS cells", "test": "Immunoblot of CDK12 substrate phosphorylation under oxidative stress", "format": "cell-based, human", "details": "100 μM for 4 h", "procedure": "as §1, §2"}}, "data": [{"smiles": "CC[C@H](C)[C@@H]1NC(=O)CNC(=O)[C@@H]2Cc3c([nH]c4cc(O)ccc34)[S+]([O-])C[C@@H](NC(=O)CNC1=O)C(=O)N[C@@H](CC(N)=O)C(=O)N1C[C@H](O)C[C@H]1C(=O)N[C@@H]([C@@H](C)[C@@H](O)CO)C(=O)N2", "note": "(stereo in doubt) [α-amanitin]", "values": [{"measurement": "association of eIF4E and 4E-BP1 at the CHK1 promoter", "setting": "[1]", "result": "largely abolished"}, {"measurement": "occupancy of RNAPII or CDK12 at the CHK1 promoter", "setting": "[1]", "result": "without affecting"}]}, {"smiles": "O=C(c1cc(Cc2n[nH]c(=O)c3ccccc23)ccc1F)N1CCN(C(=O)C2CC2)CC1", "note": "[Olaparib, olaparib]", "values": [{"measurement": "cell survival with CDK12 depletion", "setting": "U2OS cells [2]", "result": "sensitizes"}]}, {"smiles": "CN(C)C/C=C/C(=O)Nc1ccc(C(=O)Nc2cccc(Nc3ncc(Cl)c(-c4c[nH]c5ccccc45)n3)c2)cc1", "note": "[THZ1]", "values": [{"measurement": "inhibition of Cdk12 kinase activity", "setting": "Cdk12", "result": "modestly inhibit"}]}, {"smiles": "CN1CC[C@H](c2c(O)cc(O)c3c(=O)cc(-c4ccccc4Cl)oc23)[C@H](O)C1", "note": "[flavopiridol]", "values": [{"measurement": "inhibition of Cdk12 kinase activity", "setting": "Cdk12", "result": "modestly inhibit"}]}, {"smiles": "CO[C@H]1C[C@@H]2CC[C@@H](C)[C@@](O)(O2)C(=O)C(=O)N2CCCC[C@H]2C(=O)O[C@H]([C@H](C)C[C@@H]2CC[C@@H](O)[C@H](OC)C2)CC(=O)[C@H](C)/C=C(\\C)[C@@H](O)[C@@H](OC)C(=O)[C@H](C)C[C@H](C)/C=C/C=C/C=C/1C", "note": "[rapamycin]", "values": [{"measurement": "number of rapamycin-sensitive mRNAs that require mTORC1 to efficiently bind eIF4G", "setting": "[3]", "result": "2,961"}]}, {"smiles": "CC(C)(C)c1cc(O)ccc1O", "note": "[tBHQ, tert-butylhydroquinone]", "values": [{"measurement": "association of CRIF1 with the CDK12:CCNK complex", "setting": "[4]", "result": "greatly reduced"}, {"measurement": "RNAPII CTD-Ser2 and 4E-BP1 S65, T70 phosphorylation", "setting": "U2OS cells [5]", "result": "global increase"}, {"measurement": "mTORC1-dependent 4E-BP1 T37/46 phosphorylation levels", "setting": "U2OS cells [5]", "result": "only modestly increased"}]}]}
